Molecular target: T1, human LPAR1 (Homo sapiens, UniProt Q92633)
T1 construct: host or cells: TangoEDG2-bla U2OS cells
Experiment: Arrestin assay (Arrestin Reporter EDG2-bla U2OS), inhibition of LPA-stimulated signal
Assay type: cell-based
Settings: TangoEDG2-bla U2OS cells expressing human LPAR1; 0.25 μM LPA; read-out: Arrestin Reporter EDG2-bla U2OS Human Merged IC50
In short: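 TangoEDG2-bla U2OS cells (1×10^4/well, plated 18-20 h) were preincubated 1 h at 37 °C with compound (12-point, 3-fold, 10 μM to 0.00006 μM), then stimulated 3 h with 0.25 μM LPA final. LiveBLAzer FRET B/G 460/530 nm emission ratio gave % inhibition; IC50 from 4-parameter variable-slope fit.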

T1 sequence (Q92633 whole entry): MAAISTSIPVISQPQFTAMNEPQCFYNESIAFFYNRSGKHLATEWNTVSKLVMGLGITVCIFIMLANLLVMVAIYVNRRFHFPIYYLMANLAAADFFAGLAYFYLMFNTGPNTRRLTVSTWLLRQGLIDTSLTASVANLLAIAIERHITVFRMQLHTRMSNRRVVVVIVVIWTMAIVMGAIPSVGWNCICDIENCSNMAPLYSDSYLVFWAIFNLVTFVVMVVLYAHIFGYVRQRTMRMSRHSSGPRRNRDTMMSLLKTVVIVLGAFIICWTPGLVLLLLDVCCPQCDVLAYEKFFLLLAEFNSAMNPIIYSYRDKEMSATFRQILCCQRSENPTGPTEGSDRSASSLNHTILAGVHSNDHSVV

Structure (SMILES)	IC50 [nM]
CC(C)c1ccnn1C1(C(=O)Nc2ccc(Cl)cc2OC(F)F)CCN([C@H]2C[C@@](C(=O)O)(C(F)F)C2)CC1 [Compound 220, (1s,3s)-3-[4-[[4-chloro-2-(difluoromethoxy)phenyl]carbamoyl]-4-(5-isopropylpyrazol-1-yl)-1-piperidyl]-1-(difluoromethyl) cyclobutanccarboxylic acid]	71.5
CC(C)c1c(F)cnn1C1(C(=O)Nc2ccc(Cl)cc2OC(F)F)CCN(C[C@]2(C(=O)O)CC[C@H](O)CC2)CC1 [Compound 161, (1r,4r)-1-[[4-[[4-chloro-2-(difluoromethoxy)phenyl]carbamoyl]-4-(4-fluoro-S-isopropyl-pyrazol-1-yl)-1-piperidyl]methyl]-4-hydroxy-cyclohexanecarboxylic acid]	212
CC(C)c1ccnn1C1(C(=O)Nc2ccc(Cl)cc2OC(F)F)CCN(CC2(C(=O)O)CC2)CC1 [Compound 76, 1-[[4-[[4-chloro-2-(difluoromethoxy)phenyl]carbamoyl]-4-(5-isopropylpyrazol-1-yl)-1-piperidyl]methyl]cyclopropanecarboxylic acid]	65.5
CC(C)c1ccnn1C1(C(=O)Nc2ccc(Cl)cc2OC(F)F)CCN([C@H]2C[C@@](C#N)(C(=O)O)C2)CC1 [Compound 112, (1s,3s)-3-[4-[[4-chloro-2-(difluoromethoxy)phenyl]carbamoyl]-4-(5-isopropylpyrazol-1-yl)-1-piperidyl]-1-cyano-cyclobutanecarboxylic acid]	309
COCC[C@@H](CN1CCC(C(=O)Nc2ccc(Cl)cc2OC(F)F)(n2nccc2C(C)C)CC1)C(=O)O [Compound 156, (2S)-2-[[4-[[4-chloro-2-(difluoromethoxy)phenyl]carbamoyl]-4-(5-isopropylpyrazol-1-yl)-1-piperidyl]methyl]-4-methoxy-butanoic acid]	49.7
COCC[C@H](CN1CCC(C(=O)Nc2ccc(Cl)cc2OC(F)F)(n2nccc2C(C)C)CC1)C(=O)O [Compound 157, (2R)-2-[[4-[[4-chloro-2-(difluoromethoxy)phenyl]carbamoyl]-4-(5-isopropylpyrazol-1-yl)-1-piperidyl]methyl]-4-methoxy-butanoic acid]	53.2
CC(C)c1ccnn1C1(C(=O)Nc2ccc(Cl)cc2OC(F)F)CCN(CC2(C(=O)O)CCN(C(=O)OC(C)(C)C)CC2)CC1 [Compound 4, 1-tert-butoxycarbonyl-4-[[4-[[4-chloro-2-(difluoromethoxy)phenyl]carbamoyl]-4-(5-isopropylpyrazol-1-yl)-1-piperidyl]methyl] piperidine-4-carboxylic acid]	22.8
CCO[C@H](CN1CCC(C(=O)Nc2ccc(Cl)cc2OC(F)F)(n2nccc2C(C)C)CC1)C(=O)O [Compound 144, (2R)-3-[4-[[4-chloro-2-(difluoromethoxy)phenyl]carbamoyl]-4-(5-isopropylpyrazol-1-yl)-1-piperidyl]-2-ethoxy-propanoic acid]	55.9
COCC[C@H](CN1CCC(C(=O)Nc2ccc(Cl)cc2OC(F)F)(n2ncc3c2C(C)(C)OC3)CC1)C(=O)O [Compound 207, (2R)-2-[[4-[[4-chloro-2-(difluoromethoxy)phenyl]carbamoyl]-4-(6,6-dimethyl-4H-furo[3,4-c]pyrazol-1-yl)-1-piperidyl]methyl]-4-methoxy-butanoic acid]	93.7
COCC[C@@H](CN1CCC(C(=O)Nc2ccc(Cl)cc2OC(F)F)(n2ncc3c2C(C)(C)OC3)CC1)C(=O)O [Compound 210, (2S)-2-[[4-[[4-chloro-2-(difluoromethoxy)phenyl]carbamoyl]-4-(6,6-dimethyl-4H-furo[3,4-c]pyrazol-1-yl)-1-piperidyl]methyl]-4-methoxy-butanoic acid]	123
CC(C)c1ccnn1C1(C(=O)Nc2ccc(Cl)cc2OC(F)F)CCN(CC(CN2CCOCC2)C(=O)O)CC1 (stereo not drawn) [Compound 125, 2-[[4-[[4-chloro-2-(difluoromethoxy)phenyl]carbamoyl]-4-(5-isopropylpyrazol-1-yl)-1-piperidyl]methyl]-3-morpholino-propanoic acid]	113
CO[C@H]1CC[C@H]([C@H](CN2CCC(C(=O)Nc3ccc(Cl)cc3OC(F)F)(n3nccc3C(C)C)CC2)C(=O)O)CC1 (single isomer, unassigned) [Compound 185]	57.4

The remaining lines, values ahead:

IC50 [nM]	Structure (SMILES)
48.8	CC(C)c1ccnn1C1(C(=O)Nc2ccc(Cl)cc2OC(F)F)CCN(CC2(C(=O)O)C[C@@H](C)O[C@@H](C)C2)CC1 (stereo partly drawn) [Compound 180, (2R,6S)-4-[[4-[[4-chloro-2-(difluoromethoxy)phenyl]carbamoyl]-4-(5-isopropylpyrazol-1-yl)-1-piperidyl]methyl]-2,6-dimethyl-tetrahydropyran-4-carboxylic acid]
5.13	COc1cccc([C@@H](CN2CCC(C(=O)Nc3ccc(Cl)cc3OC(F)F)(n3nccc3C(C)C)CC2)C(=O)O)c1 [Compound 33, (2S)-3-[4-[[4-chloro-2-(difluoromethoxy)phenyl]carbamoyl]-4-(5-isopropylpyrazol-1-yl)-1-piperidyl]-2-(3-methoxyphenyl)propanoic acid]
16.5	CC(C)c1ccnn1C1(C(=O)Nc2ccc(Cl)cc2OC(F)F)CCN(CC(CN2CCOC(F)(F)C2)C(=O)O)CC1 (stereo not drawn) [Compound 237, 2-[[4-[[4-chloro-2-(difluoromethoxy)phenyl]carbamoyl]-4-(5-isopropylpyrazol-1-yl)-1-piperidyl]methyl]-3-(2,2-difluoromorpholin-4-yl)propanoic acid]
22.2	CC(C)c1c(F)cnn1C1(C(=O)Nc2ccc(Cl)cc2OC(F)F)CCN(C[C@H](CO)C(=O)O)CC1 [Compound 213, (2R)-2-[[4-[[4-chloro-2-(difluoromethoxy)phenyl]carbamoyl]-4-(4-fluoro-5-isopropyl-pyrazol-1-yl)-1-piperidyl]methyl]-3-hydroxy-propanoic acid]
39.4	CC(C)c1ccnn1C1(C(=O)Nc2ccc(Cl)cc2OC(F)F)CCN(C[C@H](CO)C(=O)O)CC1 [Compound 183, (2R)-2-[[4-[[4-chloro-2-(difluoromethoxy)phenyl]carbamoyl]-4-(5-isopropylpyrazol-1-yl)-1-piperidyl]methyl]-3-hydroxy-propanoic acid]
38.9	CC(C)c1c(F)cnn1C1(C(=O)Nc2ccc(Cl)cc2OC(F)F)CCN([C@H]2C[C@@H](C(=O)O)C2)CC1 (single isomer, unassigned) [Compound 123, (1s,3s)-3-[4-[[4-chloro-2-(difluoromethoxy)phenyl]carbamoyl]-4-(4-fluoro-S-isopropyl-pyrazol-1-yl)-1-piperidyl]cyclobutanecarboxylic acid]
46	CC(C)c1c(F)cnn1C1(C(=O)Nc2ccc(Cl)cc2OC(F)F)CCN(C[C@@H](C(=O)O)C2CCOCC2)CC1 [Compound 158, (2.8)-3-[4-[[4-chloro-2-(difluoromethoxy)phenyl]carbamoyl]-4-(4-fluoro-5-isopropyl-pyrazol-1-yl)-1-piperidyl]-2-tetrahydropyran-4-yl-propanoic acid]
34.7	CC(C)c1ccnn1C1(C(=O)Nc2ccc(Cl)cc2OC(F)F)CCN(CC(Cn2cccn2)C(=O)O)CC1 (stereo not drawn) [Compound 129, 2-[[4-[[4-chloro-2-(difluoromethoxy)phenyl]carbamoyl]-4-(5-isopropylpyrazol-1-yl)-1-piperidyl]methyl]-3-pyrazol-1-yl-propanoic acid]
12.6	CC(C)c1ccnn1C1(C(=O)Nc2ccc(Cl)cc2OC(F)F)CCN(CC2(C(=O)O)CCCCO2)CC1 (stereo not drawn) [Compound 30, 2-[[4-[[4-chloro-2-(difluoromethoxy)phenyl]carbamoyl]-4-(5-isopropylpyrazol-1-yl)-1-piperidyl]methyl] tetrahydropyran-2-carboxylic acid]
20.9	CC(C)c1ccnn1C1(C(=O)Nc2ccc(Cl)cc2OC(F)F)CCN(C[C@@](C)(O)C(=O)O)CC1 [Compound 235, (2R)-3-[4-[[4-chloro-2-(difluoromethoxy)phenyl]carbamoyl]-4-(5-isopropylpyrazol-1-yl)-1-piperidyl]-2-hydroxy-2-methyl-propanoic acid]
9.54	CC(C)c1ccnn1C1(C(=O)Nc2ccc(Cl)cc2OC(F)F)CCN(C[C@H](COCC(F)(F)F)C(=O)O)CC1 [Compound 234, (2R)-2-[[4-[[4-chloro-2-(difluoromethoxy)phenyl]carbamoyl]-4-(5-isopropylpyrazol-1-yl)-1-piperidyl]methyl]-3-(2,2,2-trifluoroethoxy)propanoic acid]
46.7	CC(C)c1ccnn1C1(C(=O)Nc2ccc(Cl)cc2OC(F)F)CCN(CC(C(=O)O)C2CCOC2)CC1 (stereo not drawn) [Compound 136, 3-[4-[[4-chloro-2-(difluoromethoxy)phenyl]carbamoyl]-4-(5-isopropylpyrazol-1-yl)-1-piperidyl]-2-tetrahydrofuran-3-yl-propanoic acid]
31.1	COc1cnn([C@H](CN2CCC(C(=O)Nc3ccc(Cl)cc3OC(F)F)(n3nccc3C(C)C)CC2)C(=O)O)c1 [Compound 224, (2R)-3-[4-[[4-chloro-2-(difluoromethoxy)phenyl]carbamoyl]-4-(5-isopropylpyrazol-1-yl)-1-piperidyl]-2-(4-methoxypyrazol-1-yl)propanoic acid]
20.9	CCC(CC)(CN1CCC(C(=O)Nc2ccc(Cl)cc2OC(F)F)(n2nccc2C(C)C)CC1)C(=O)O [Compound 67]
3.31	CC(C)c1ccnn1C1(C(=O)Nc2ccc(Cl)cc2OC(F)F)CCN(CC2(C(=O)O)CCN(C(=O)OCc3ccccc3)CC2)CC1 [Compound 8, 1-benzyloxycarbonyl-4-[[4-[[4-chloro-2-(difluoromethoxy)phenyl]carbamoyl]-4-(5-isopropylpyrazol-1-yl)-1-piperidyl]methyl]piperidine-4-carboxylic acid]

— patent US20260102383A1, “LPAR1 Inhibitors” (AbbVie Inc., priority 2024, published 2026)
